Results on 13 compounds are retold here after article PMC5972072 (Bioorganic chemistry, 2018).

One test has as its system HCT116 and HeLa cells. Conditions: HCT116 and HeLa cells ref 13; cited from earlier work.
The target in test [1] is T1, haspin kinase (Homo sapiens, UniProt Q8TF76).
T1 sequence (Q8TF76 1-798): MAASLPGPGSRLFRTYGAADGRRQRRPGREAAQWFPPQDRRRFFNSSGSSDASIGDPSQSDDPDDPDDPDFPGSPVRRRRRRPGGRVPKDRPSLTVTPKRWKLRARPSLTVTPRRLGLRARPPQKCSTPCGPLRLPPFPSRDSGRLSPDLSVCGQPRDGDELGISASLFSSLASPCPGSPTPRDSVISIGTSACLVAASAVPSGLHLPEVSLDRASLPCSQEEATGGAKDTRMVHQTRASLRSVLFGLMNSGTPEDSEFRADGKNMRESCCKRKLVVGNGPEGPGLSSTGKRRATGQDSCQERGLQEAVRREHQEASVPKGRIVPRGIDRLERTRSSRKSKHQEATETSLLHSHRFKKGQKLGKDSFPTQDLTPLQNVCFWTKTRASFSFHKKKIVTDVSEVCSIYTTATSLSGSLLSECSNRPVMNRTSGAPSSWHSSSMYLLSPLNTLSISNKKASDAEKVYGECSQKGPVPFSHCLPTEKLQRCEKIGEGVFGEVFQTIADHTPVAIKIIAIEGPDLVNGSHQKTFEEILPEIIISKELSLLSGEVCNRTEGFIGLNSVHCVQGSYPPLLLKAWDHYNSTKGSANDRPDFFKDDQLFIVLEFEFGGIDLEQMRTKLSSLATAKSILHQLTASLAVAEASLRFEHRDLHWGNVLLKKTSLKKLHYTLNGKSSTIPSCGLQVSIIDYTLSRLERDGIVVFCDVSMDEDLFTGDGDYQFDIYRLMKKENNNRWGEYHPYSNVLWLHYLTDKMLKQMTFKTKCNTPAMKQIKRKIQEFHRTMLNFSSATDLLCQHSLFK
The experiment in a line: Haspin kinase activity, ADP-Glo kinase assay, single concentration. Type of test: biochemical. Conditions: for haspin inhibition (in words): 100 nM compound, 3 h, Figure 2; for inhibition at 0.1 µM: read-out: inhibition of haspin's enzymatic activity. (ADP-Glo turns the ADP formed in a reaction into a luminescent signal.)

Test [2] concerns HCT116 cells. The experiment in a line: Antiproliferative activity, CellTiter-Blue viability. The format is cell-based. Conditions: for antiproliferative activity (in words): HCT116, 10 μM, 72 h; for pIC50: Homo sapiens, HCT-116, 72 h, read-out: IC50 against HCT116. On the technique in general: Resazurin is reduced to fluorescent resorufin, in cell work by metabolically active cells.

A further test relates to HeLa cells. The description is as above. Type of test: cell-based. The note with it: 72 h; for antiproliferative activity (in words): 10 μM; for pIC50: Homo sapiens, read-out: IC50 against HeLa.
Another test concerns A375 cells. Described as above. The format is cell-based. Conditions: A375, 10 μM, 72 h.
In test [3] the target is T1, haspin kinase. Kind of test: Haspin dose-response.
In test [4] the test system is HCT116 cells. The experiment in a line: Cell cycle analysis, propidium iodide staining with flow cytometry. Type of test: cell-based. (In general: Flow cytometry measures light scatter and fluorescence of single cells or particles in a stream.)
Test [5] deals with caspase 3/7 in HCT116 cells. The experiment in a line: Caspase 3/7 fluorescence assay. Conditions: HCT116, after 72 hours, normalized to DMSO.

pIC50: −log10 of the molar value. Entries after “also recorded” stand apart in the source; their conditions may differ.

On to `CCCNc1ccc2ncc(-c3ccc4[nH]ncc4c3)n2n1` [CHR-6494], for which, in the test on HCT116 and HeLa cells, the “apoptosis (in words)” value is “apoptosis” and the “cell cycle arrest (in words)” value is listed as “G2/M cell cycle arrest”.
In the case of `Oc1ccc(-c2nc3ccc4[nH]ncc4c3c3c2CCCC3)cc1` [Compound 1, 4-(8,9,10,11-Tetrahydro-3H-pyrazolo[4,3-a]phenanthridin-7-yl)phenol], the “haspin inhibition (in words)” value at haspin kinase [1] is “good haspin inhibitor”. Besides, the “antiproliferative activity (in words)” value in the test on HCT116 cells [2], with HeLa cells and in the test on A375 cells was “did not have good anticancer activities” each time.
In the case of `N#Cc1n[nH]c2ccc3nc(-c4ccc(O)cc4)c4c(c3c12)CCCC4` [Compound 7, 7-(4-Hydroxyphenyl)-8,9,10,11-tetrahydro-3H-pyrazolo[4,3-a]phenanthridine-1-carbonitrile], at haspin kinase [1], the “haspin inhibition (in words)” value is reported as “no inhibitory activity; also recorded: did not inhibit haspin; also recorded: poor haspin inhibitors”. Moreover, the “antiproliferative activity (in words)” value in the test with HCT116 cells [2], in the test with HeLa cells and in the test with A375 cells was “performed poorly” in each case.
As to `Oc1ccc(-c2nc3ccc4[nH]ncc4c3c3c2CCCC3)cc1F` [Compound 8, 2-Fluoro-4-(8,9,10,11-tetrahydro-3H-pyrazolo[4,3-a]phenanthridin-7-yl)phenol], the “haspin inhibition (in words)” value at haspin kinase [1] is recorded as “less active against haspin than HSD972”.
The same measure, in the same setting: the entry for `Oc1cc(F)c(-c2nc3ccc4[nH]ncc4c3c3c2CCCC3)cc1F` [Compound 10, 2,5-Difluoro-4-(8,9,10,11-tetrahydro-3H-pyrazolo[4,3-a]phenanthridin-7-yl)phenol] is “decreased potency”.
Turning to `Oc1ccc(-c2nc3ccc4[nH]ncc4c3c3c2CCCC3)cn1` [Compound 12, 5-(8,9,10,11-Tetrahydro-3H-pyrazolo[4,3-a]phenanthridin-7-yl)pyridin-2-ol], the “haspin inhibition (in words)” value on haspin kinase [1] is listed as “poor haspin inhibitor”. In addition, the “antiproliferative activity (in words)” value with HCT116 cells [2], in the test on HeLa cells and in the test with A375 cells was “moderate antiproliferative activity” each time.
Usually inhibition stands for the percentage by which the read-out fell short of the control. What is called pIC50 is the IC50 on a negative log10 scale, so that one unit is a factor of ten. Turning to `Nc1ccc(-c2nc3ccc4[nH]ncc4c3c3c2CCCC3)cn1` [Compound 17, 5-(8,9,10,11-Tetrahydro-3H-pyrazolo[4,3-a]phenanthridin-7-yl)pyridin-2-amine], on haspin kinase [1], the “haspin inhibition (in words)” value is “did not affect haspin inhibition” and the inhibition at 0.1 µM was more than 90%. Further, the pIC50 on haspin kinase [3] was 7.35.
For the compound `Nc1ncc(-c2nc3ccc4[nH]ncc4c3c3c2CCCC3)cn1` [Compound 18, 5-(8,9,10,11-Tetrahydro-3H-pyrazolo[4,3-a]phenanthridin-7-yl)pyrimidin-2-amine], the “haspin inhibition (in words)” value at haspin kinase [1] is “slightly less active against haspin”.
With `Oc1ccc(-c2nc3c(ccc4cn[nH]c43)c3c2CCCC3)cc1` [Compound 19, 4-(6,7,8,9-Tetrahydro-3H-pyrazolo[4,3-c]phenanthridin-5-yl)phenol], the “haspin inhibition (in words)” value at haspin kinase [1] is “not as active against haspin than compound 1; also recorded: poor haspin inhibitors”. The “antiproliferative activity (in words)” value with HCT116 cells [2], with HeLa cells and in the test on A375 cells was “performed poorly” throughout.
As to `Oc1ccc(-c2nc3ccc4cn[nH]c4c3c3c2CCCC3)cc1` [Compound 20, 4-(8,9,10,11-Tetrahydro-1H-pyrazolo[3,4-a]phenanthridin-7-yl)phenol], the “haspin inhibition (in words)” value at haspin kinase [1] was “not as active against haspin than compound 1”.
On the same count and under the same terms, as for `Oc1ccc(-c2nc3ccc4[nH]ncc4c3c3c2CCCC3)c(F)c1F` [Compound 21, 2,3-Difluoro-4-(8,9,10,11-tetrahydro-3H-pyrazolo[4,3-a]phenanthridin-7-yl)phenol], the entry is “decreased potency”.
Regarding `Nc1ccc(-c2nc3ccc4[nH]ncc4c3c3c2CCCC3)cc1` [HSD929, 4-(8,9,10,11-Tetrahydro-3H-pyrazolo[4,3-a]phenanthridin-7-yl)aniline], the “haspin inhibition (in words)” value is listed as “potent inhibitors of haspin” at haspin kinase [1] and “did not affect haspin inhibition” on haspin kinase [1] (listed as 16). For the same compound, the inhibition at 0.1 µM on haspin kinase [1] is more than 90%. For the same compound, the “antiproliferative activity (in words)” value in the test with HCT116 cells [2] and in the test on HeLa cells was “potent antiproliferative activities” in each case. The figures for the pIC50 in the test on HCT116 cells [2], in the test with HeLa cells and against haspin kinase [3] were 5.77, 5.44 and 7.21, respectively.
Take `Oc1ccc(-c2nc3ccc4[nH]ncc4c3c3c2CCCC3)c(F)c1` [HSD972, 3-Fluoro-4-(8,9,10,11-tetrahydro-3H-pyrazolo[4,3-a]phenanthridin-7-yl)phenol]: the inhibition at 0.1 µM on haspin kinase [1] is more than 90%. In addition, in the test with HCT116 cells [2], the “antiproliferative activity (in words)” value was “potent antiproliferative activities” and the pIC50 was 5.57. In addition, in the test with HeLa cells, the “antiproliferative activity (in words)” value is listed as “potent antiproliferative activities” and the pIC50 is 5.32. In the test with HCT116 cells [4] (HCT116, 13.5 μM (5X IC50), 24 h, DMSO 16.2%), the “cells in G2 phase” value worked out at 59.3%. Also, the “effect on cell cycle distribution (in words)” value with HCT116 cells [4] (HCT116, 5X IC50, 24 h, compared to DMSO) was “population of cells in the G2/M phase was higher”. The “caspase 3/7 activity (in words)” value in test [5] is listed as “increased the activity of caspase 3/7”.
